One may read the solubility as the concentration that dissolves in the medium under given conditions. A high value points to a readily soluble substance. By AUC(0-inf) is commonly meant the area under the concentration-time curve extrapolated to infinity. A word on the AUC(0-t): it is the area under the concentration-time curve up to a stated or last time point. By MRT inf is commonly meant the average time that molecules of a dose stay in the body. As usually defined, the Tmax is the time at which the peak concentration occurs. By bioavailability is commonly meant the share of a dose that reaches the circulation, judged against a reference dose that is usually intravenous.

This is an account of results in patent US9963475B2, “Anthracene-9, 10-dione dioxime compound prodrugs and their uses” (Beta Cat Pharmaceuticals, Inc., priority 2015, dated 2018).

Structures can show the parent of a compound that is named as a salt. Where two headings read alike, the source gives them in different places. A value given as a limit tells only on which side of the number the result lay.

The nature of series [1]: Stability assay in buffer (pH 1 and pH 6), LC-MS/MS. In kind it is physicochemical. As for the experimental part: (§1) A stock solution of the compound will be prepared in dimethylsulfoxide (DMSO) at 10 mM concentration. This stock solution will be serially diluted in DMSO to get stock solutions of 5, 2.5, 1.25, 0.625, 0.312, 0.156, and 0.078 mM. Working solutions of compound at a range of concentrations (100, 50, 25, 12.5, 6.25, 3.12, 1.56, and 0.78 μM) will be prepared in different buffers (pH 1 and 6).
(§2) In a 100 mL bottle, 33.5 mL of 0.2 M hydrochloric acid solution will be added to 12.5 mL of 0.2 M potassium chloride solution and diluted to […] with Milli-Q® water. The pH of the buffer solution will be adjusted to 1.0 with 0.2 M HCl solution and finally, volume will be made to 100 mL with Milli-Q® water.
(§3) In a 100 mL bottle, 6.15 mL of 0.2 M disodium hydrogen phosphate (dibasic) and 43.85 mL of 0.2 M sodium dihydrogen phosphate (monobasic) solution will be added. The pH of the buffer solution will be adjusted to 6.0 using the phosphate solutions. The volume will be made to 100 mL with Milli-Q® water.
The study will be performed in a 96-well deep well plate by spiking 10 μL of stock solutions into 990 μL buffer and 100 μL aliquots will be withdrawn at 0 and 120 min. The aliquots will be collected in centrifuge tubes containing 100 μL of acetonitrile. To the quenched samples, internal standard will be added and they will be taken for analysis using LC-MS/MS spectrometry. The experiments will be performed in duplicate in an orbital shaker maintained at 37° C. at 60 rpm.
(§4) The samples will be analysed for BC3005 using a fit-for-purpose LC-MS/MS method. If the sample concentration is above upper limit of quantification, the samples will be diluted and read against the calibration curve.
(§5) The concentration in samples will be determined against the calibration curve by using the following equation: Y=mX+C

A short description of series [2]: Solubility assay in buffer (pH 1 and pH 6), LC-MS/MS. The series is classed as physicochemical. As for the experimental part: as §1, §2, §3
The study will be performed in a 96-well deep well plate by spiking 10 μL stock solutions into 990 μL buffer. Spiked buffer samples will be maintained at room temperature for 2 h. Incubations will be performed in duplicates. The plate will be centrifuged at 4000 rpm for 20 min at room temperature to enable the insoluble particles/precipitates to settle down. The supernatant will be diluted 1:1 with acetonitrile and internal standard will be added. The samples will be analyzed using LC-MS/MS.
as §4, §5

A short description of series [3]: Mouse PK study with Compound 24. The settings on record: in vivo; for bioavailability: nominal doses and AUClast of IV (1 mg/kg) and PO (10 mg/kg) used. An excerpt: Mouse PK Study with Compound 24 Summary of Pharmacokinetic Parameters of Compound 24 and Tegavivint: […]
A short description of series [4]: Pharmacokinetics of Compound 10 (prodrug) and estimation of Compound 1 (parent) following oral and intravenous administration. The series is classed as in vivo, Male Sprague Dawley Rats. Particulars: for Vd / AUC(0-inf) / AUC(0-t) / clearance / half-life / MRT last: male, Sprague Dawley; for Vd: rat, plasma, iv, 1.28 mg/kg; for AUC(0-inf) / AUC(0-t) / clearance / half-life / MRT last / AUCExtra / Co: rat plasma; for AUC(0-inf) / AUC(0-t) / clearance / half-life / MRT last / AUCExtra: IV 1.28 mg/kg sodium salt of compound 10; for MRT last: read-out: MRT0-last; for Co: IV 1.28 mg/kg sodium salt of compound 10, mean concentration data. The text has this:
Pharmacokinetics of Compound 10 (Prodrug) and Estimation of Compound 1 (Parent) Following Oral and Intravenous Administration in Male Sprague Dawley Rats

The mark [5] stands for this setting: aqueous buffer pH 1, simulated gastric fluid, kinetic from dmso stock, pH 1, room temperature.
Setting [6] is: aqueous buffer pH 6, aqueous buffer, kinetic from dmso stock, pH 6, room temperature.
Setting [7] is: IV 1 mg/kg Compound 24, read-out: T½ (converted).
Where [8] appears, read: PO 10 mg/kg Compound 24, read-out: C0/Cmax.
Setting [9] is: IV 1.28 mg/kg sodium salt of compound 10, read-out: Vd.
[10] abbreviates: IV 1.28 mg/kg sodium salt of compound 10, read-out: Vdss.

Take `CCC(C)C(N)C(=O)OCON=C1c2ccc(S(=O)(=O)N3C[C@H](C)C[C@H](C)C3)cc2C(=NO)c2cc(S(=O)(=O)N3C[C@H](C)C[C@H](C)C3)ccc21` (stereo partly drawn) [Compound 24, ((((9E,10E)-3,6-bis(((3R,5S)-3,5-dimethylpiperidin-1-yl)sulfonyl)-10-(hydroxyimino)anthracen-9(10H)-ylidene)amino)oxy)methyl 2-amino-3-methylpentanoate dihydrochloride]: the “% Compound remaining at 120 min” value in series [1] (pH 1, 37° C.) was found to be 101%; in series [1] (pH 6, 37° C.), 93%. Moreover, the solubility at 2 h is above 100 µM in series [2] (setting [5]) and below 0.78 µM in series [2] (setting [6]). Besides, the AUC(0-inf) in series [3] (IV 1 mg/kg Compound 24) was 379 ng·h/mL; in series [3] (PO 10 mg/kg Compound 24) it was 78.2 ng·h/mL. The values for the AUC(0-t) in series [3] (IV 1 mg/kg Compound 24) and in series [3] (PO 10 mg/kg Compound 24) were 376 ng·h/mL and 60.5 ng·h/mL, respectively. Further, the MRT inf was determined as 0.476 h in series [3] (IV 1 mg/kg Compound 24) and 1.36 h in series [3] (PO 10 mg/kg Compound 24). For the same compound, the clearance in series [3] (IV 1 mg/kg Compound 24) turned out to be 43.9 mL/min/kg. The Cmax in series [3] (IV 1 mg/kg Compound 24, C0 back extrapolated concentration at time zero) is 2370 ng/mL; in series [3] (setting [8]) it was 60.7 ng/mL. In addition, the half-life was 0.748 h in series [3] (setting [7]) and 0.873 h in series [3] (PO 10 mg/kg Compound 24, read-out: T½ (converted)). For the same compound, the Vd in series [3] (IV 1 mg/kg Compound 24, read-out: VSS) is 1.25 L/kg. For the same compound, in series [3] (PO 10 mg/kg Compound 24), the time of peak concentration (Tmax) is 0.25 h. For the same compound, in series [3], the bioavailability is 2%.
Take `C[C@@H]1C[C@H](C)CN(S(=O)(=O)c2ccc3c(c2)C(=NO)c2cc(S(=O)(=O)N4C[C@H](C)C[C@H](C)C4)ccc2C3=NO)C1` [Compound 1, (9E,10E)-2,7-bis(((3R,5S)-3,5-dimethylpiperidin-1-yl)sulfonyl)anthracene-9,10-dione dioxime, reference compound]: the Vd in series [4] (setting [9]) is 16.9 L/kg. Moreover, the Vd in series [4] (setting [10]) is 15 L/kg. In series [4], the AUC(0-inf) is 446 ng·h/mL, the exposure AUC(0-t) is 396 ng·h/mL, the clearance was 48.3 mL/min/kg and the half-life was 4 h. For the same compound, in series [4], the MRT last is 3.56 h, the AUCExtra was 11.19% and the Co is reported as 116.31 ng/mL. Moreover, in series [3] (IV 1 mg/kg Compound 24), the AUC(0-inf) amounted to 873 ng·h/mL, the AUC(0-t) came to 752 ng·h/mL and the MRT inf was 10.5 h. Further, the half-life in series [3] (setting [7]) was 9.39 h. In addition, in series [3] (PO 10 mg/kg Compound 24), the AUC(0-t) worked out at 229 ng·h/mL and the Tmax came out at 1 h. Also, the Cmax in series [3] (setting [8]) came out at 52.5 ng/mL. In series [3], the bioavailability was found to be 3%.
In the case of `CC(C)[C@H](N)C(=O)OCON=C1c2cc(S(=O)(=O)N3C[C@H](C)C[C@H](C)C3)ccc2C(=NO)c2ccc(S(=O)(=O)N3C[C@H](C)C[C@H](C)C3)cc21.Cl` [Compound 43, ((((9E,10E)-2,7-bis(((3R,5S)-3,5-dimethylpiperidin-1-yl)sulfonyl)-10-(hydroxyimino)anthracen-9(10H)-ylidene)amino)-oxy)methylvalinate hydrochloride], the “% Compound remaining at 120 min” value in series [1] (pH 1, 37° C.) is reported as 90%; in series [1] (pH 6, 37° C.), 128%. The solubility at 2 h in series [2] (pH 1, room temperature) is listed as below 0.78 µM; in series [2] (pH 6, room temperature), below 0.78 µM.
Turning to `C[C@@H]1C[C@H](C)CN(S(=O)(=O)c2ccc3c(c2)C(=NO)c2cc(S(=O)(=O)N4C[C@H](C)C[C@H](C)C4)ccc2C3=NOCOP(=O)(O)O)C1` [Compound 10, ((((9E,10E)-3,6-bis(((3S,5R)-3,5-dimethylpiperidin-1-yl)sulfonyl)-10-(hydroxyimino)anthracen-9(10H)-ylidene)amino)-oxy)methyl dihydrogen phosphate], the “% Compound remaining at 120 min” value in series [1] (pH 1, 37° C.) came out at 101%. Also, the “% Compound remaining at 120 min” value in series [1] (pH 6, 37° C.) was 79%. The Vd in series [4] (setting [9]) is 3.31 L/kg. For the same compound, in series [4] (setting [10]), the Vd was 0.39 L/kg. In series [4], the AUC(0-inf) was 885 ng·h/mL, the AUC(0-t) is 869 ng·h/mL, the clearance is 24.1 mL/min/kg and the half-life was 1.59 h. Moreover, in series [4], the MRT last is 0.15 h, the AUCExtra is given as 1.81% and the Co is 11437.00 ng/mL. This compound also returned a solubility at 2 h in series [2] (setting [5]) below 0.78 µM. Further, in series [2] (setting [6]), the solubility at 2 h is below 0.78 µM.
`CCC(C)C(N)C(=O)OCON=C1c2cc(S(=O)(=O)N3C[C@H](C)C[C@H](C)C3)ccc2C(=NO)c2ccc(S(=O)(=O)N3C[C@H](C)C[C@H](C)C3)cc21` (stereo partly drawn) [Compound 38, ((((9E,10E)-2,7-bis(((3S,5R)-3,5-dimethylpiperidin-1-yl)sulfonyl)-10-(hydroxyimino)anthracen-9(10H)-ylidene)amino)oxy)methyl 2-amino-3-methylpentanoate]: the “% Compound remaining at 120 min” value was 85% in series [1] (pH 1, 37° C.) and 96% in series [1] (pH 6, 37° C.). The solubility at 2 h in series [2] (setting [5]) and in series [2] (setting [6]) was below 0.78 µM throughout.
Take `CC(C)C[C@H](N)C(=O)OCON=C1c2ccc(S(=O)(=O)N3C[C@H](C)C[C@H](C)C3)cc2C(=NO)c2cc(S(=O)(=O)N3C[C@H](C)C[C@H](C)C3)ccc21.Cl` [Compound 41, ((((9E,10E)-3,6-bis(((3R,5S)-3,5-dimethylpiperidin-1-yl)sulfonyl)-10-(hydroxyimino)anthracen-9(10H)-ylidene)amino)oxy)methyl leucinate hydrochloride]: the “% Compound remaining at 120 min” value in series [1] (pH 1, 37° C.) was 98%; in series [1] (pH 6, 37° C.), 76%. Also, the solubility at 2 h in series [2] (pH 1, room temperature) is given as below 0.78 µM; in series [2] (pH 6, room temperature), below 0.78 µM.
As for `C[C@@H]1C[C@H](C)CN(S(=O)(=O)c2ccc3c(c2)C(=NO)c2cc(S(=O)(=O)N4C[C@H](C)C[C@H](C)C4)ccc2C3=NOP(=O)(O)O)C1` [Compound 4, ((((9E,10E)-3,6-bis(((3R,5S)-3,5-dimethylpiperidin-1-yl)sulfonyl)-10-(hydroxyimino)-anthracen-9(10H)-ylidene)amino)oxy)phosphonic acid], the “% Compound remaining at 120 min” value in series [1] (pH 1, 37° C.) was found to be 96%; in series [1] (pH 6, 37° C.), 101%. Further, the solubility at 2 h in series [2] (setting [5]) is below 0.78 µM; in series [2] (setting [6]), above 100 µM.
Take `C[C@@H]1C[C@H](C)CN(S(=O)(=O)c2ccc3c(c2)C(=NOCOC(=O)C(N)C(C)(C)C)c2cc(S(=O)(=O)N4C[C@H](C)C[C@H](C)C4)ccc2C3=NO)C1` (stereo partly drawn) [Compound 46, ((((9E,10E)-2,7-bis(((3R,5S)-3,5-dimethyl-piperidin-1-yl)sulfonyl)-10-(hydroxyimino)anthracen-9(10H)-ylidene)amino)oxy)methyl-2-amino-3,3-dimethylbutanoate]: the “% Compound remaining at 120 min” value in series [1] (pH 1, 37° C.) is on record as 93%; in series [1] (pH 6, 37° C.), 97%. The solubility at 2 h is listed as below 0.78 µM in series [2] (pH 1, room temperature) and below 0.78 µM in series [2] (pH 6, room temperature).
